The source of these data is patent US20030232986A1, “Inhibitors of caspases” (Vertex Pharmaceuticals Incorporated, priority 1998, published 2003).

*1 amine or outer side, *2 acyl side, *3 side chain or, on linkers, in order; H or OH if unused. Where a SMILES comes first, the peptide text is derived from it. [ ]: non-standard residue; d: D form. The star is where a group is joined. 4Abz = Nc1ccc(C(=O)O)cc1; CO = O=C([*:1])[*:2]; NHPh = c1ccc(N*)cc1 A value given as a limit tells only on which side of the number the result lay.

One may read the Ki as a dissociation constant, usually derived from enzyme kinetics or from competition with a known ligand. A higher Ki goes with weaker binding.

The first assay concerns the target T1, Caspase-1 (Homo sapiens, UniProt P29466).
T1 sequence (P29466 120-297 limits assumed): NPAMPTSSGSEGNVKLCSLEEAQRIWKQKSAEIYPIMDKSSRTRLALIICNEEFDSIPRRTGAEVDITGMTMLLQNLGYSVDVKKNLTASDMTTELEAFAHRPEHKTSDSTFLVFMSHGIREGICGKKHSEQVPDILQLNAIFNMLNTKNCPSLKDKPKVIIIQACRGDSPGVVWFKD
T1 sequence (P29466 317-404 limits assumed): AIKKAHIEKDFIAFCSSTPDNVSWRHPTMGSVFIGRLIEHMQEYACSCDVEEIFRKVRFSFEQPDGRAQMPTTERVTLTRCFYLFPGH
The experiment in a line: Caspase-1 enzyme inhibition (Ki). In kind it is biochemical.
Settings: not given
The procedure: Ki values for test compounds with the various caspases were obtained by the method of Margolin et al. (J. Biol. Chem., 272 pp. 7223-7228 (1997)). Assays were performed in 10 mM Tris (Sigma Corp, St Louis Mo.) pH 7.5, 1 mM Dithiothreitol (DTT, Research Organic INC, Cleveland, Ohio) and 0.1% CHAPS (Pierce, Rockford Ill.) at 37° C. For caspase-3, a solution of 8% glycerol was added to the assay buffer to improve enzyme stability. A 65 μL aliquot of the assay buffer and 5 μL aliquot of the appropriate dilutions of inhibitor in DMSO where pipetted into a 96 well plate, treated with 10 μL of caspase, then diluted in assay buffer (0.5-40 nM active protein by active site titration). A control containing DMSO but no compound was included for each determination. The plates were then incubated for 15 minutes at 37° C., before addition of the appropriate substrate (20 μL, final concentration 1-4×KM, final assay volume 100 μL) to initiate the reaction. Reaction rates were measured at 37° C. either by following the time dependant increase in absorbance at 405 nm (for the pNA substrates) or in fluorescence (Ex 390, Em 460) (for the AMC substrates). The rates obtained were plotted against inhibitor concentration and the data fit to the Morrison tight-binding equation for competitive inhibitors (Morrison, J. F., Biochem. Biophys. Acta, 185 pp. 269-286 (1969)). The substrates used for the individual assays were as follows:
Caspase-1 Suc-YVAD-pNA (Bachem, King of Prussia, Pa.) (final concentration in the assay 80 μM),
Consider `Cc1onc(-c2c(F)cccc2Cl)c1C(=O)N[C@H](C(=O)N1CCC[C@H]1C(=O)N[C@H](C=O)CC(=O)O)C(C)C` [Example 5ae], for which the Ki is 10 to 1000 nM.
On the same count and under the same terms, next, `CC(=O)N[C@H](Cc1c[nH]c2ccccc12)C(=O)N[C@H](C(=O)N1CCC[C@H]1C(=O)N[C@H](C=O)CC(=O)O)C(C)C` [Example 5ah] (Ac-[dW]VPD-aldehyde): 10 to 1000 nM.
Still for that read-out and setting: the result for `COc1ccc(CCC(=O)N[C@H](C(=O)N2CCC[C@H]2C(=O)N[C@H](C=O)CC(=O)O)C(C)C)cc1OC` [Example 5o] reads 10 to 1000 nM.
Same read-out and setting: next, `CC(C)[C@H](NC(=O)C(c1ccc(Cl)cc1)c1ccc(Cl)cc1)C(=O)N1CCC[C@H]1C(=O)N[C@H](C=O)CC(=O)O` [Example 5p]: 10 to 1000 nM; `CC(C)[C@H](NC(=O)C(c1ccccc1)c1ccccc1)C(=O)N1CCC[C@H]1C(=O)N[C@H](C=O)CC(=O)O` [Example 5q]: 10 to 1000 nM; `CC(C)[C@H](NC(=O)C1(c2ccccc2)CCCC1)C(=O)N1CCC[C@H]1C(=O)N[C@H](C=O)CC(=O)O` [Example 5t]: over 1000 nM.

The same assay, now with this note: substrate Suc-YVAD-pNA 80 μM, 37° C., pH 7.5.
In turn, `COc1ccc(C(=O)NC(C(=O)N2N=C(C(C)(C)C)SC2C(=O)NC(C=O)CC(=O)O)C(C)C)cc1` (single isomer, unassigned) [Example 46a, 3-({5-tert-butyl-3-[2-(4-methoxy-benzoylamino)-3-methyl-butyryl]-2,3-dihydro-[1,3,4]thiadiazole-2-carbonyl)-amino)-4-oxo-butyric acid] gave a Ki of over 1000 nM.
On the same count and under the same terms, the result for `Cc1onc(-c2c(F)cccc2Cl)c1C(=O)N[C@H](C(=O)N1CCC[C@H]1C(=O)N[C@H](C=O)CC(=O)O)C(C)C` [Example 5ae] reads 10 to 1000 nM; that for `CC(=O)N[C@H](Cc1c[nH]c2ccccc12)C(=O)N[C@H](C(=O)N1CCC[C@H]1C(=O)N[C@H](C=O)CC(=O)O)C(C)C` [Example 5ah] (Ac-[dW]VPD-aldehyde), 10 to 1000 nM.
On the same count and under the same terms, next, `CC(C)[C@H](NC(=O)Cc1ccc(Cl)c(Cl)c1)C(=O)N1CCC[C@H]1C(=O)N[C@H](C=O)CC(=O)O` [Example 5an]: 10 to 1000 nM; `Cc1ccn2c(=O)c(C(=O)N[C@H](C(=O)N3CCC[C@H]3C(=O)N[C@H](C=O)CC(=O)O)C(C)C)cnc2c1` [Example 5ap]: 10 to 1000 nM.
`CC(C)[C@H](NC(=O)c1c(-c2ccccc2)nnc2ccccc12)C(=O)N1CCC[C@H]1C(=O)N[C@H](C=O)CC(=O)O` [Example 5bc] had a Ki of 10 to 1000 nM.
On to `COc1ccc(CCC(=O)N[C@H](C(=O)N2CCC[C@H]2C(=O)N[C@H](C=O)CC(=O)O)C(C)C)cc1OC` [Example 5o], for which the Ki is 10 to 1000 nM.
On the same count and under the same terms, the result for `CC(C)[C@H](NC(=O)C(c1ccc(Cl)cc1)c1ccc(Cl)cc1)C(=O)N1CCC[C@H]1C(=O)N[C@H](C=O)CC(=O)O` [Example 5p] reads 10 to 1000 nM.
On the same count and under the same terms, the result for `CC(C)[C@H](NC(=O)C(c1ccccc1)c1ccccc1)C(=O)N1CCC[C@H]1C(=O)N[C@H](C=O)CC(=O)O` [Example 5q] reads 10 to 1000 nM; that for `CC(C)[C@H](NC(=O)C1(c2ccccc2)CCCC1)C(=O)N1CCC[C@H]1C(=O)N[C@H](C=O)CC(=O)O` [Example 5t], over 1000 nM; that for `C[C@H](NS(=O)(=O)c1ccccc1)C(=O)N1CCC[C@H]1C(=O)N[C@H](C=O)CC(=O)O` [Example 7ae], 10 to 1000 nM.
Still for that read-out and setting: the result for `C[C@H](NC(=O)Nc1ccccc1)C(=O)N1CCC[C@H]1C(=O)N[C@H](C=O)CC(=O)O` [Example 7af] ({NHPh-CO}-Ala-Pro-Asp-aldehyde) reads 10 to 1000 nM; that for `C[C@H](NC(=O)Oc1ccccc1)C(=O)N1CCC[C@H]1C(=O)N[C@H](C=O)CC(=O)O` [Example 7ag], 10 to 1000 nM; that for `C[C@H](NC(=O)c1ccc(F)c(F)c1)C(=O)N1CCC[C@H]1C(=O)N[C@H](C=O)CC(=O)O` [Example 7al], 10 to 1000 nM.
The molecule `C[C@H](NC(=O)c1ccc(N)cc1)C(=O)N1CCC[C@H]1C(=O)N[C@H](C=O)CC(=O)O` [Example 7aq] (H-[4Abz]APD-aldehyde) gave a Ki of 10 to 1000 nM.
The same measure, in the same setting: next, `C[C@H](NC(=O)c1ccc(OC(F)(F)F)cc1)C(=O)N1CCC[C@H]1C(=O)N[C@H](C=O)CC(=O)O` [Example 7i]: 10 to 1000 nM; `CC(=O)N(C)c1ccc(C(=O)N[C@@H](C)C(=O)N2CCC[C@H]2C(=O)N[C@H](C=O)CC(=O)O)cc1` [Example 7j]: over 1000 nM; `Cc1nc(C)c(C(=O)N[C@@H](C)C(=O)N2CCC[C@H]2C(=O)N[C@H](C=O)CC(=O)O)s1` [Example 7r]: 10 to 1000 nM.
On the same count and under the same terms, next, `CC(C)[C@H](NC(=O)c1ccc(N)c(Cl)c1)C(=O)N1CCN(C)C[C@H]1C(=O)N[C@H](C=O)CC(=O)O` [Example 17a]: 10 to 1000 nM.
Same read-out and setting: the result for `C[C@H](NC(=O)C(=O)c1ccccc1)C(=O)N1CC(F)(F)C[C@H]1C(=O)N[C@H](C=O)CC(=O)O` [Example 27c] reads 10 to 1000 nM.
Molecule `Cc1cc(C(=O)N[C@@H](C)C(=O)N2CC(F)(F)C[C@H]2C(=O)N[C@H](C=O)CC(=O)O)cc(C)c1O` [Example 27j] yielded a Ki of 10 to 1000 nM.
Molecule `CC(=O)Nc1c(Cl)cc(C(=O)N[C@@H](C)C(=O)N2CC(F)(F)C[C@H]2C(=O)N[C@H](C=O)CC(=O)O)cc1Cl` [Example 27k] came in with a Ki of 10 to 1000 nM.
`CC(C)[C@H](NC(=O)c1cccc2ccccc12)C(=O)N[C@@H](C)C(=O)N[C@H](C=O)CC(=O)O` [Example 29f]: the Ki is under 10 nM.
Still for that read-out and setting: the result for `CC(C)C[C@@H](C(=O)N[C@H](C=O)CC(=O)O)N1CC[C@@H](NC(=O)c2nccc3ccccc23)C1=O` [Example 32a] reads over 1000 nM; that for `Cc1cc(C(=O)N[C@@H]2CCN([C@@H](CC(C)C)C(=O)N[C@H](C=O)CC(=O)O)C2=O)cc(C)c1O` [Example 32b], over 1000 nM.
Consider `CC(C)C[C@@H](C(=O)N[C@H](C=O)CC(=O)O)N1CC[C@@H](NC(=O)c2ccc3[nH]nnc3c2)C1=O` [Example 32c], for which the Ki was over 1000 nM.
For `CC(C)C[C@@H](C(=O)N[C@H](C=O)CC(=O)O)N1CC[C@@H](NC(=O)c2c(Cl)cccc2Cl)C1=O` [Example 32e], the Ki fell in the range of 10 to 1000 nM.
The molecule `CN(NC(=O)N1CCCC1C(=O)NC(C=O)CC(=O)O)C(=O)c1nccc2ccccc12` (stereo not drawn) [Example 34, 3-({1-[N-(isoquinoline-1-carbonyl)-N-methyl-hydrazinocarbonyl]-pyrrolidine-2-carbonyl}-amino)-4-oxo-butyric acid] gave a Ki of over 1000 nM.
In the case of `CC(Nc1ccccc1)C(=O)N1CCCC1C(=O)NC(C=O)CC(=O)O` (stereo not drawn) [Example 121, 4-Oxo-3-{[1-(2-phenylamino-propionyl)-pyrrolidine-2-carbonyl]-amino}-butyric acid], the inhibition constant Ki is over 1000 nM.
The same measure, in the same setting: next, `C[C@H](NC(=O)c1cc(F)c(N(C)C)c(F)c1)C(=O)N1CCC[C@H]1C(=O)N[C@H](C=O)CC(=O)O` [Example 122n, 3-({1-[2-(4-Dimethylamino-3,5-difluoro-benzoylamino)-propionyl]-pyrrolidine-2-carbonyl}-amino)-4-oxo-butyric acid]: 10 to 1000 nM; `C[C@H](NC(=O)c1ccc(N)c(Cl)c1)C(=O)N1CCC[C@@H]1C(=O)N[C@H](C=O)CC(=O)O` [Example 122o, 3-({1-[2-(4-Amino-3-chloro-benzoylamino)-propionyl]-pyrrolidine-2-carbonyl}-amino)-4-oxo-butyric acid]: over 1000 nM; `CCC(=O)Nc1ccc(C(=O)N[C@@H](C)C(=O)N2CCC[C@H]2C(=O)N[C@H](C=O)CC(=O)O)cc1Cl` [Example 122t, 3-({1-[2-(3-Chloro-4-propionylamino-benzoylamino)-propionyl]-pyrrolidine-2-carbonyl}-amino)-4-oxo-butyric acid]: 10 to 1000 nM.
Regarding `C[C@H](NC(=O)c1ccc(NC(=O)Cc2ccccc2)c(Cl)c1)C(=O)N1CCC[C@H]1C(=O)N[C@H](C=O)CC(=O)O` [Example 122u, 3-({1-[2-(3-Chloro-4-phenylacetylamino-benzoylamino)-propionyl]-pyrrolidine-2-carbonyl}-amino)-4-oxo-butyric acid], the Ki is under 10 nM.
With `CC(C)CC(=O)Nc1ccc(C(=O)N[C@@H](C)C(=O)N2CCC[C@H]2C(=O)N[C@H](C=O)CC(=O)O)cc1Cl` [Example 122v, 3-[(1-{2-[3-Chloro-4-(3-methyl-butyrylamino)-benzoylamino]-propionyl}-pyrrolidine-2-carbonyl}-amino]-4-oxo-butyric acid], the Ki lay within 10 to 1000 nM.
With `COc1c(C(=O)NC(C)C(=O)N2CC(F)(F)CC2C(=O)NC(C=O)CC(=O)O)ccc(NC(C)=O)c1Cl` (stereo not drawn) [Example 123c, 3-({1-[2-(4-Acetylamino-3-chloro-2-methoxy-benzoylamino)-propionyl]-4,4-difluoro-pyrrolidine-2-carbonyl)-amino)-4-oxo-butyric acid], the Ki fell in the range of 10 to 1000 nM.
Take `Nc1ccc(C(=O)NCC(=O)N2CCC[C@H]2C(=O)N[C@H](C=O)CC(=O)O)cc1Cl` [Example G1, 3-({1-[(4-Amino-3-chloro-benzoylamino)-acetyl]-pyrrolidine-2-carbonyl}-amino)-4-oxo-butyric acid]: the Ki was over 1000 nM.
